Where a SMILES comes first, the peptide text is derived from it.
How the values were obtained:
[1] = Method: Liposome permeabilization assays. Liposomes were constructed by hydration of dried lipid films with 10 mM Hepes and 30 mM calcein to a final lipid concentration of 10 mg/ml. Resulting multilamellar liposomes were extruded through a 0.1 μm polycarbonate filter at temperatures above the transition point of the particular lipid mixture. Untapped calcein was removed by gel filtration (Sephacryl S-300 HR). Permeabilization of liposomes was monitored fluorimetrically with a Perkin Elmer LS-55 luminescent spectrophotometer. Assays were performed by diluting liposomes 1:1000 into the appropriate buffer and monitoring fluorescence when excited by 484 nm light (5 nm slit width) and reading the emission intensity at 513 nm (10 nm slit widths). The percentage calcein release was calculated relative to the 100% fluorescence intensity, achieved by the addition of 0.01% Triton X-100.
[2] = test system: Human embryonic kidney cells (HEK)
[3] = test system: Bloodstream form T. b. brucei Lister 427; assay: Trypanosome killing assay, Example 2; format: cell-based, Trypanosoma brucei brucei; conditions: two hours at 37° C.
Method: Trypanosome killing assays. Bloodstream form T. b. brucei Lister 427 (MiTat 1.2), T. b. gambiense type 1 (Eliane strain) and T. b. rhodesiense KETR12482 were used in these studies. Trypanosome killing assays were performed as described previously (Hajduk et al., 1989, J Biol Chem; 264(9):5210-5217; Shiflett et al., 2005, J Biol Chem; 280(38):32578-32585; and Widener et al., 2007, PLoS Pathog; 3(9):1250-1261). Cultured trypanosomes (except for T. b. gambiense which were incubated at 1×10^6 cells/ml) were incubated in HMI-9 media (BSF) or SM media (PCF) at a density of 1×10^7 cells/ml containing either 10% heat inactivated fetal bovine serum or bovine serum albumin and peptide or control reagents for two hours at 37° C. Killing of BSF trypanosomes was evaluated by phase-contrast microscopy. Procyclic form trypanosomes were stained with 0.1% trypan blue. Trypan blue staining was also used for some BSF assays to eliminate any possible discrepancy between the PCF and BSF assays. Trypan blue was added at the endpoint of each assay to avoid any toxic effects.

[4] = test system: bloodstream form T. b. brucei (wild type 427); assay: Trypanosome lysis assay with Hpr-SP; format: cell-based, Trypanosoma brucei brucei; conditions: 8-80 μM peptide, 2 h, 37° C.
Method: Trypanosome lysis assays. Trypanosomes were cultured in the appropriate media and incubated at a cell density of 3×10^6 cells/ml with the addition of peptide from a 10 mg/ml stock in DMSO, or control reagents for 2 hours (h) at 37° C. Lysis of bloodstream form trypanosomes was evaluated by phase-contrast microscopy. Procyclic form trypanosomes were stained with 0.1% trypan blue. Trypan blue staining was also used for some bloodstream form assays to eliminate any possible discrepancy between the procyclic and bloodstream form assays.

BSF T. b. brucei [5] = assay: Trypanosome killing assay, Example 4; format: cell-based, Trypanosoma brucei brucei; conditions: two hour killing assay, 37° C.
Method: Trypanosome Killing Assays. Light microscopy based trypanosome killing assays were performed as previously described in detail (Harrington et al., 2010, J Biol Chem; 285(37):28659-66; Widener et al., 2007, PLoS Pathog; 3(9):1250-61; Shiflett et al., 2007, J Eukaryot Microbiol; 54(1):18-21; and Hajduk et al., 1989, J Biol Chem; 264(9):5210-7). Metacyclic T. b. brucei TREU 667 were obtained from dissection of the salivary glands of infected tsetse flies. Newly hatched Glossina morsitans morsitans (24-48 hours post eclosion) were fed defibrinated horse blood containing 2×10^6 ml^−1 trypanosomes and maintained at 25° C. in 75% relative humidity and fed maintenance blood meals three times per week. Following day 20-30, flies were harvested and salivary glands were dissected out and washed in HMI 9 media containing 10% fetal bovine serum. Metacyclic cells were collected via centrifugation and maintained in HMI 9 media with 10% fetal bovine serum at 37° C. in 5% CO2 until use. Killing assays were conducted with 1×10^4 cells/ml in HMI 9 media containing 10% fetal bovine serum. Trypanosoma vivax and T. congolense were grown from stabilites in donor ICR mouse (Harlan, United Kingdom). Parasites were harvested from mice by terminal exsanguination and passage of infected blood through a small anion exchange column. Cells were maintained in HMI 9 with 20% goat serum at 37° C. in 5% CO2 until use. Killing assays were performed with 1×10^7 cells/ml in HMI 9 media with either 20% goat serum, in the case of T. vivax and T congolense, and 10% fetal bovine serum, for T. b. brucei. Cells were incubated at 37° C. for 2 hours and dead parasites were scored visually. All were conducted in at least duplicate, and data points are the averages with standard deviations.

[6] = test system: plasma membrane of live BSF T. b. brucei; assay: Anisotropy assays with DPH and TMA-DPH, Example 4; format: cell-based, Trypanosoma brucei brucei; conditions: 37° C.
Method: Anisotropy Assays. The plasma membrane rigidity of live T. b. brucei was determined by measuring the fluorescence depolarization of diphenyl-1,3,5-hexatriene p-toluenesulfonate (DPH) or 1-(4-trimethylammoniumphenyl)-6-diphenyl-1,3,5-hexatriene p-toluenesulfonate (TMA-DPH; Invitrogen T204). Cells were washed 3 times with and resuspended in PBS at a density of 3×10^6 cells/ml. The anisotropic probes were added to a final concentration of […] and allowed to intercalate into the cell membrane for one hour in the dark. Anisotropic values were acquired via the software function of a PerkinElmer Life Sciences LS55 spectrofluorometer. Samples were excited at 358 nm, and emission was read at 430 nm, both with 10-nm slit widths. Temperature was maintained at 37° C. by means of the PerkinElmer LS55 Biokinetics accessory. Data were corrected for light scattering with an unlabeled sample of cells, and anisotropy was calculated according to the equation r=(IVV−GIVH)/(IVV+2GIVH), where r is the anisotropy value, IVV is the emission intensity acquired with the excitation- and emission-polarizing filters set vertically, G is the instrument correction factor, and IVH is the emission intensity acquired with the excitation-polarizing filter set vertically and the emission-polarizing filter set horizontally. All assays were conducted at 37° C. […]

BSF T. b. brucei [7] = assay: Trypanosome motility by video microscopy, Example 4; format: cell-based, Trypanosoma brucei brucei; conditions: 40 μM peptide, 37° C.
Method: Trypanosome motility. All images and videos were acquired with an Axio Observer Z1 equipped with an AxioCam MRm controlled by AxioVision 4.6 software. Videos were acquired with live cells at a density of 1×10^7 cells/ml in HMI 9 media with 10% fetal bovine serum, incubated with 40 µM SHP-1 at 37° C. Videos were recorded at magnification 63× with 50-ms acquisition times. The motility of BSF trypanosomes was scored visually from video playback of trypanosomes scanned throughout 10 μl aliquots. Data is shown as the average of triplicate trials with standard deviations.

| Compound | killing of BSF T. b. brucei [3] | killing of BSF T. brucei (trypanocidal activity) (BSF T. b. brucei [5]) | also measured |
| --- | --- | --- | --- |
| CC[C@H](C)[C@H](NC(=O)[C@@H](NC(=O)[C@H](C)NC(=O)CNC(=O)[C@H](CC(C)C)NC(=O)[C@H](CC(=O)O)NC(=O)[C@H](CO)NC(=O)[C@@H](N)CCSC)C(C)C)C(=O)N[C@@H](CO)C(=O)N[C@@H](CC(C)C)C(=O)N[C@@H](CC(C)C)C(=O)N[C@@H](CC(C)C)C(=O)N[C@@H](Cc1c[nH]c2ccccc12)C(=O)NCC(=O)N[C@@H](CCCNC(=N)N)C(=O)N[C@@H](CCC(N)=O)C(=O)N[C@@H](CC(C)C)C(=O)N[C@@H](Cc1ccccc1)C(=O)N[C@@H](C)C(=O)O [Hpr-SP, MSDLGAVISLLLWGRQLFA] (H-MSDLGAVISLLLWGRQLFA-OH; N-terminus and C-terminus assumed) |  |  | permeabilization of DSPC liposomes (calcein leakage) ([1]; neutral or acidic pH): no permeabilizing activity at neutral or acidic pH; permeabilization of egg PC liposomes (calcein leakage) ([1]; robust at pH 6.8): readily permeabilized by nanomolar concentrations; toxicity towards human embryonic kidney cells [2]: No toxicity was observed |
| AKLIALTLLGMGLALFRNHQS (amino acid sequence of small hydrophobic peptide -2 (SHP-2)) [Signal peptide of human paraoxonase-1 without the N-terminal methionine] | equivalent to SHP-1 |  |  |
| ERTEESWGRRFWRRGEAC (non-specific, hydrophilic peptide predicted from the N-terminus of the alternatively edited protein-1 from mitochondria of T. b. brucei) [NSP, Non-specific hydrophilic peptide predicted from the N-terminus of alternatively edited protein-1 of T. b. brucei mitochondria, reference compound] | exhibited no toxicity |  | killing (trypanolysis) of bloodstream form trypanosomes [4]: gave no trypanolysis |
| FHQIWAALLYFYGIIENSIY (derivative of SHP-3 having a leucine to glutamic acid substitution at position -5) [SHP-3ΔE] |  | does not |  |
| FHQIWAALLYFYGIIRNSIY (derivative of SHP-3 having a leucine to arginine substitution at position -5) [SHP-3ΔR] |  | confers trypanocidal activity | rigidity of the interfacial region of the plasma membrane (TMA-DPH) [6]: increased the rigidity of the interfacial region of the plasma membrane; motility phenotype (hyperactivation, constriction) (BSF T. b. brucei [7]): induce both initial hyperactivation and subsequent constriction |
| SDLGAVISLLWGRQLFA (derivative of SHP-1 having a single leucine deletion) [SHP-1-ΔL] |  |  | decrease in trypanocidal activity relative to SHP-1 [3]: five-fold |
| SDLGAVISWGRQLFA (derivative of SHP-1 having a deletion of C-terminal leucine in triplicate) [SHP-1-ΔLLL, Derivative of SHP-1 with deletion of C-terminal leucine triplicate] | complete lose of trypanosome killing activity |  |  |
| SDVISLLLWGRQLFA (derivative of SHP-1 having a deletion of the N-terminal leucine-glycine-alanine residues) [SHP-1-ΔLGA, Derivative of SHP-1 with a deletion of the N-terminal leucine-glycine-alanine residues] | complete lose of trypanosome killing activity |  |  |
| SRLGAVISLLLWGDQLFA (derivative of SHP-1 having an aspartic acid to arginine substitution at position 2 and an arginine to aspartic acid subsitution at position -5) [SHP-1-swap, SHP-1 with aspartic acid at position 2 and arginine at position −5 swapped] |  | loss of trypanocidal activity |  |
